Consider twelve compounds from publication PMC6274376, “Naturally Inspired Molecules as Multifunctional Agents for Alzheimer’s Disease Treatment” (Molecules, 2016).

Series [1] has as its target hBACE-1 (Homo sapiens, UniProt P56817). The series can be described thus: BACE-1 FRET inhibition assay. Particulars: for inhibition at 5 µM: tested at 5 µM concentration; for IC50: FRET assay, average of multiple experiments each in triplicate, ± SEM. The class given is biochemical. Here is the method: The new benzophenone-based hybrids 3–7 presented in this study were first evaluated for their in vitro ability to inhibit the enzymatic activity of BACE-1, by means of a biochemical assay performed using the fluorescence resonance energy transfer (FRET) methodology and in comparison to inhibitor IV [22] as reference compound (Table 1). For the most interesting compounds 3–5, endowed with the orto-hydroxycarbonyl substitution pattern, the neuroprotective potential was determined as lack of toxic effects on neuronal cell viability and as Cu(II) chelating activity (Table 2); moreover, their direct interactions with Cu(II) ion were confirmed by a UV-vis spectrophotometric study.
Inhibition studies were performed using the following procedure: 5 μL of test compound (or DMSO) were pre-incubated with 175 μL of enzyme (10.37 nM, final concentration) in 20 mM NaOAc pH 4.5 containing CHAPS (0.1% w/v) for 1 h at r.t.; M-2420 (3 μM, final concentration) was then added and left to react for 15 min. The fluorescence signal was read at λem = 405 nm (λexc = 320 nm). DMSO concentration in the final mixture was maintained below 5% (v/v) to guarantee no significant loss of enzyme activity.Fluorescence intensities with and without inhibitor were compared and the percent inhibition due to the presence of test compounds was calculated. The background signal was measured in control wells containing all the reagents, except theenzymeand subtracted. The % inhibition due to the presence of increasing test compound concentration was calculated by the following expression: 100 − (IFi/IFo × 100) where IFi and IFo are the fluorescence intensities obtained for the enzyme in the presence and in the absence of inhibitor, respectively. Inhibition curves were obtained for each compound by plotting the % inhibition versus the logarithm of inhibitor concentration in the assay sample. The linear regression parameters were determined and the IC50 extrapolated (GraphPad Prism 4.0, GraphPad Software Inc., San Diego, CA, USA).

Series [2] has as its target CatD (Homo sapiens, UniProt P07339). Kind of series: CatD inhibition. The class given is biochemical. The settings on record: up to 0.5 μM.
Series [3] in a line: Cu(II) chelating assay (bathocuproinedisulfonic acid disodium salt, BCS). The format is physicochemical. Here is the method:
Data were expressed as chelating activity percentage (Table 2).
The Cu(II) chelating activity of the compounds was determined using the bathocuproinedisulfonic acid disodium salt (BCS) assay as previously described. Briefly, 50 μL of a 0.25 mM CuSO4 solution were mixed for 2 min with 50 μL of 5–20 µM compound solution in 100 µL of HEPES buffer (15 mM). Hydroxylamine (1 mM) was added after 2 min in order to reduce non-chelated cupric ions into cuprous ones. Finally, 50 μL of BCS (5 mM) or water (blank) was added and the absorbance at 490 nm was measured by spectrophotometry using a multilabel plate reader (VICTOR™ X3, PerkinElmer, Waltham, MA, USA) immediately and at 5 min. Na2EDTA (5–20 µM) was used as a positive control. The ability of the test compounds to chelate cupric ions was calculated using the following equation: chelating activity (%) = [1 − (Abs BCS + compound/Abs BCS) × 100].

In series [4] the test system is SH-SY5Y cells. The series can be described thus: Neurotoxicity, MTT cell viability assay. The class given is cell-based, human. The settings on record: for IC50: Homo sapiens, SH-SY5Y cells, 24 h treatment, 1.25–40 µM, MTT, mean ± SD. Here is the method: Cytotoxic effects in several in vitro or in vivo models have been reported for some chalcones. Therefore, to discriminate the neurotoxic concentrations of the conjugates 3–5 we evaluated the cell viability of human neuronal SH-SY5Y cells after 24 h treatment with these conjugate at different concentrations (1.25–40 μM) using the MTT assay. […] Thus, the presence of an α,β-unsatured carbonyl fragment seems to positively influence the degree of neuronal toxicity, leading to molecules endowed with a favorable SI.
Human neuronal (SH-SY5Y) cells were routinely grown in Dulbecco’s modified Eagle’ Medium (DMEM) supplemented with 10% fetal bovine serum, 2 mmol/L-glutamine, 50 U·mL^−1penicillin and 50 μg·mL^−1streptomycin at 37 °C in a humidified incubator with 5% CO2.
To evaluate the neurotoxicity of compounds, the SH-SY5Y cells were seeded in 96-well plates at 2 × 10^4 cells/well, incubated for 24 h and subsequently treated with various concentrations of compounds (1.25–40 µM) for 24 h at 37 °C in 5% CO2;. The cell viability in terms of mitochondrial metabolic function was evaluated by the reduction in 3-(4,5-dimethyl-2-thiazolyl)-2,5-diphenyl-2H-tetrazolium bromide (MTT) to formazan as previously described. The quantity of formazan was directly proportional to the number of viable cells. Briefly, the treatment medium was replaced with MTT (5 mg/mL) in phosphate-buffered saline (PBS) for 2 h at 37 °C in 5% CO2. After washing with PBS, the formazan crystals were dissolved with isopropanol. The amount of formazan was measured (570 nm, reference filter 690 nm) using a multilabel plate reader (VICTOR™ X3, PerkinElmer, Waltham, MA, USA). The neurotoxicity is expressed as concentration of compound resulting in 50% inhibition of cell viability.

A short description of series [5]: UV-vis spectrophotometric evaluation of Cu(II) ion complexation. The format is physicochemical. An excerpt: Chalcone conjugates 4 and 5 were investigated to evaluate their ability to complex Cu(II) ions via a UV-vis spectrophotometric study.
Therefore, we decided to carry on the spectrophotometric measurements in a mixed solvent: aqueous MOPS aqueous buffer […] pH 7.4 /DMF in 1:4 ratio, respectively. Flavonoids bearing the 4-carbonyl-5-hydroxyl chelation site have characteristic UV-vis spectra, characterized by a wide and non-structured band centred around 370–380 nm, with a molar extinction coefficient of 50,000 cm^−1·M^−1 that is attributed to HOMO-LUMO transition with a π-π* character.
All reagents and solvents were used as received (from Aldrich, St. Louis, MO, USA) without further purification: copper(II) sulphate hydrate (≥98%), 3-(N-Morpholino)propanesulfonic acid (MOPS, ≥99.5%), sodium hydroxide (≥98%), N,N-dimethylformamide (spectroscopic grade, DMF). A Milli-Q system (Millipore, Billerica, MA, USA) was used for the purification of water (resistivity ≥18.2 MΩ). MOPS bufferstock solution were obtained by a dissolution in Milli-Q water of 3-(N-morpholino)propane sulphonic acid to a final concentration of 10^−3 M. The pH was corrected with a solution of sodium hydroxide 1 N to a value of pH 7.4. Absorption spectra were recorded on a Perkin-Elmer Lambda 45 spectrophotometer at room temperature. Spectrophotometric titrations were performed as follows: stock solutions of ligands (ca. 10^−3 M) were prepared in DMF, diluted down to the desired concentration, in the quartz cuvette, in MOPS buffer 10^−3 M pH 7.4/DMF (1:4) to a final volume of 2.5 mL and then titrated by adding increasing amounts of Cu(II) (3.04 × 10^−3 Min DMF).

Setting [6] is: 5 µM compound, fixed 40 µM CuSO4.
Where [7] appears, read: 10 µM compound, fixed 40 µM CuSO4.
The mark [8] stands for this setting: 20 µM compound, fixed 40 µM CuSO4, mean ± SD.

One may read the melting point as the temperature of the solid-liquid transition. The inhibition is the share of the control response that was lost under treatment. As usually defined, the IC50 is the concentration that gives 50% inhibition. Low values mean inhibition by little substance, high ones a need for much substance.

Values joined by “and” are separate entries in the source; they are usually repeats but may differ in a detail not shown here. Equal values may be shown once. Where a name gives a salt, the structure may show the parent alone.

Sequence of hBACE-1 (P56817 46-501): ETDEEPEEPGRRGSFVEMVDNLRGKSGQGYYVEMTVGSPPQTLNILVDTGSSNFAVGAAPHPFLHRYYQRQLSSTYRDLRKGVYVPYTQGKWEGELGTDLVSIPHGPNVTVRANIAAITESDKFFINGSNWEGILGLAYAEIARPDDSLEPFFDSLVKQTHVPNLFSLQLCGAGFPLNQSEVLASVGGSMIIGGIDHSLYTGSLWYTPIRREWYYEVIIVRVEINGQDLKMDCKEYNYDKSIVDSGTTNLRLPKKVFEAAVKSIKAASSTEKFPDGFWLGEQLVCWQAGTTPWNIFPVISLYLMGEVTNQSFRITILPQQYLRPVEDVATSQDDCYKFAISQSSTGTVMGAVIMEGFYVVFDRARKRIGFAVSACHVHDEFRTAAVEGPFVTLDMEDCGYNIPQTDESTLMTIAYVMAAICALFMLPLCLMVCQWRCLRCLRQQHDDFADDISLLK
Sequence of CatD (P07339 65-412): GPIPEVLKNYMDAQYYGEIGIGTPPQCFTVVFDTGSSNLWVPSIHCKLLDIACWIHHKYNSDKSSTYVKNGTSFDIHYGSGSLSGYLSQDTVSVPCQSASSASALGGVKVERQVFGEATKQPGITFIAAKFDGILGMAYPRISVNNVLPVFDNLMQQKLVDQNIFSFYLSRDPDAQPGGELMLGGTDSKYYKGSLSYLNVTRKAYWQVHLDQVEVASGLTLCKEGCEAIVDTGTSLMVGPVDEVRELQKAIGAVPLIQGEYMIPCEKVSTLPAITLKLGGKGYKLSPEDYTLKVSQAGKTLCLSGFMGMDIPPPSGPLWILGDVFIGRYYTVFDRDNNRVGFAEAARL

With `CC(=O)c1ccc(OCCOc2ccc(C(=O)c3ccc(CN(C)Cc4ccccc4)cc3)cc2)cc1O` (as salt: HCl) [Compound 3, 1-{4-[2-(4-4-Benzylmethylaminomethylbenzoylphenoxy)ethoxy]-2-hydroxyphenyl}ethan-1-one], the melting point lay in the range of 264 to 268 °C.
`COc1cc(/C=C/C(=O)c2ccc(OCCOc3ccc(C(=O)c4ccc(CN(C)Cc5ccccc5)cc4)cc3)cc2O)cc(OC)c1OC` (as salt: HCl) [Compound 4, E-1-{4-[2-(4-4-Benzylmethylaminomethylbenzoylphenoxy)ethoxy]-2-hydroxyphenyl}-3-(3,4,5-trimethoxy-phenyl)prop-2-en-1-one]: the melting point was in the range of 220 to 222 °C.
With `CN(Cc1ccccc1)Cc1ccc(C(=O)c2ccc(OCCOc3ccc(C(=O)/C=C/c4cccc5ccccc45)c(O)c3)cc2)cc1` (as salt: HCl) [Compound 5, E-1-{4-[2-(4-4-Benzylmethylaminomethylbenzoylphenoxy)ethoxy]-2-hydroxyphenyl}-3-(naphthalen-1-yl)-prop-2-en-1-one], the melting point lay in the range of 197 to 199 °C.
In turn, `COc1cc(C2CC(=O)c3ccc(OCCOc4ccc(C(=O)c5ccc(CN(C)Cc6ccccc6)cc5)cc4)cc3O2)cc(OC)c1OC` (centres unmarked) (as salt: HCl) [Compound 6, 7-{2-[4-(4-Benzylmethylaminomethylbenzoyl)phenoxy]ethoxy}-2-(3,4,5-trimethoxyphenyl)chroman-4-one] displayed a melting point of 182 to 194 °C.
For the compound `CN(Cc1ccccc1)Cc1ccc(C(=O)c2ccc(OCCOc3ccc4c(c3)OC(c3cccc5ccccc35)CC4=O)cc2)cc1` (centres unmarked) (as salt: HCl) [Compound 7], the melting point lay in the range of 172 to 195 °C.
For the compound `COc1ccc(C(=O)c2ccc(CN(C)Cc3ccccc3)cc2)cc1OC` [Compound 1], testing at 5 µM in series [1] gave an inhibition of 20%. In addition, the CatD inhibition result in series [2] was “not inhib”.
`COc1cc(/C=C/C(=O)c2ccc(OCCO)cc2O)cc(OC)c1OC` [Compound 2, (E)-1-[2-Hydroxy-4-(2-hydroxyethoxyphenyl)]-3-(3,4,5-trimethoxyphenyl)prop-2-en-1-one] registered a melting point of 186 to 188 °C. Further, at 5.2 µM the inhibition in series [1] (at 5.2 μM) was 35.9%. In series [1], the inhibition at 5 µM was 20%.
Turning to `CC(=O)c1ccc(OCCOc2ccc(C(=O)c3ccc(CN(C)Cc4ccccc4)cc3)cc2)cc1O` [Compound 3, 1-{4-[2-(4-4-Benzylmethylaminomethylbenzoylphenoxy)ethoxy]-2-hydroxyphenyl}ethan-1-one], the “Cu(II)-Chelating Activity” value is 0.00% in series [3] (setting [6]); 3.49% in series [3] (setting [7]); 5.37% and 5.37 ± 0.16% in series [3] (setting [8]). Besides, the IC50 in series [1] was found to be 3.18 ± 0.21 µM; in series [4] it was 10.9 ± 1.63 µM.
`COc1cc(/C=C/C(=O)c2ccc(OCCOc3ccc(C(=O)c4ccc(CN(C)Cc5ccccc5)cc4)cc3)cc2O)cc(OC)c1OC` [Compound 4, E-1-{4-[2-(4-4-Benzylmethylaminomethylbenzoylphenoxy)ethoxy]-2-hydroxyphenyl}-3-(3,4,5-trimethoxy-phenyl)prop-2-en-1-one]: the “Cu(II)-Chelating Activity” value in series [3] (setting [6]) was 7.16%; in series [3] (setting [7]), 10.77%; in series [3] (setting [8]) it was 15.07% and 15.07 ± 1.32%. Also, the values for the IC50 in series [1] and in series [4] were 1.06 ± 0.15 µM and 23.7 ± 3.54 µM, respectively. Moreover, in series [5] (UV-vis spectra, MOPS buffer pH 7.4/DMF 1:4), the “ability to complex Cu(II) ions” value is “able to chelate the selected ion”. For the same compound, the “association constant (order of magnitude)” value in series [5] (estimated from titration data, 1:1 complex stoichiometry with Cu(II), MOPS pH 7.4/DMF 1:4) is ~10^4. Besides, the “selectivity index SI” value in series [4] (neurotoxicity IC50 versus BACE-1 IC50) is on record as “around 22”.
In series [1], `COc1cc(C2CC(=O)c3ccc(OCCOc4ccc(C(=O)c5ccc(CN(C)Cc6ccccc6)cc5)cc4)cc3O2)cc(OC)c1OC` (centres unmarked) [Compound 6, 7-{2-[4-(4-Benzylmethylaminomethylbenzoyl)phenoxy]ethoxy}-2-(3,4,5-trimethoxyphenyl)chroman-4-one] gave an IC50 of 1.56 ± 0.23 µM.
For `CN(Cc1ccccc1)Cc1ccc(C(=O)c2ccc(OCCOc3ccc4c(c3)OC(c3cccc5ccccc35)CC4=O)cc2)cc1` (centres unmarked) [Compound 7], the IC50 in series [1] stood at 3.97 ± 0.33 µM.
“disodium salt of ethylene diaminetetraacetic acid [Na2EDTA, reference compound]”: the “Cu(II)-Chelating Activity” value in series [3] (setting [8]) is recorded as 17.10 ± 1.44%.
